Like-named read-outs stand apart in the source and are kept apart here.
How the values were obtained:
[1] = test system: tyrosine phosphorylation in primary macrophages; experiment: Tyrosine phosphorylation assay in primary macrophages (Western blot); assay type: cell-based, mouse
Method: Tyrosine Phosphorylation Assay: Tyrosine phosphorylation in macrophages or bone marrow-derived cells (BMDCs) of mice was assayed. Mouse primary macrophages were isolated from the peritoneum of 7-8 week old C57BL/6 female mice following thioglycollate stimulation. […] Mouse primary bone marrow-derived cells were isolated by flushing bone marrow out of the femur and tibia of female SJL mice using cold RPMI-1640. […] Cells were then washed, resuspended in the same buffer and depleted of B and T cells on a Midi-Macs separation unit through a LD or LS column (Miltenyi Biotech). […] The medium was replaced every other day. […] Proteins with phosphorylated tyrosine were then observed by Western blot, using a monoclonal anti-phosphotyrosine antibody. Western blotting for ERK1/2 or α-tubulin was performed as a control for protein loading.

[2] = test system: mouse peritoneal macrophages; experiment: In vitro toxicity assay; assay type: cell-based
Method: Thioglycollate-elicited mouse peritoneal macrophages were washed, counted and seeded (2×10^5 to 3×10^5 cells per well in 24-well plates) in triplicate wells in medium containing RPMI-1640, L-glutamine, 10% FBS and antibiotics (penicillin/streptomycin). After a recovery period of 24 hours, the tested compound (or controls) was added to the cell medium at doses of 2, 10, 20, 50, 100 or 150 μg/ml, keeping the added volume equal in all treatments by complementing the volume with solvent.
Following addition of the compounds, the cells were incubated for an additional 24 hours, after which the cells were washed, fixed with a solution of 10% methanol/10% acetic acid and stained with crystal violet (0.4% in 20% ethanol). Cell numbers were measured by determining optical density at 595 nm. Cells incubated with vehicle (PBS with 1% ethanol) were used as a control, to which cell numbers in treated samples were normalized.
Data are presented as mean±standard deviation. Statistical significance relative to vehicle-treated cells was calculated using a student's t-test, with p-values of less than 0.05 being considered as indicating statistical significance.

Row | Compound | phosphotyrosine levels ([1]; 10 μg/ml, 10 minutes) | phosphotyrosine levels ([1]; 20 μg/ml, 10 minutes) | also measured
1 | 1-(2-octyl)dodecyl-2-(4-carboxy)butyl-glycero-3-phosphocholine [VB-221] | – | – | phosphotyrosine levels ([1]; 5 ng/ml (8 μM)): induction of tyrosine phosphorylation; phosphotyrosine levels ([1]; 10 ng/ml (16 μM)): induction of tyrosine phosphorylation; phosphotyrosine levels ([1]; 20 ng/ml): induction of tyrosine phosphorylation
2 | CCCCCCCCCCCCCCCCOCC(COP(=O)([O-])OCC[N+](C)(C)C)OCCC(=O)O (stereo not drawn) [CI-217, 1-Hexadecyl-2-(2-carboxy)ethyl-glycero-3-phosphocholine] | little effect | caused a reduction in phosphotyrosine levels | –
3 | CCCCCCCCCCCCCCCCCCCCOCC(COP(=O)(O)OCCN)OCCCCC(=O)O (stereo not drawn) [CI-220, 1-eicosanyl-2-(4-carboxy)butyl-glycero-3-phosphoethanolamine] | little effect, if any | caused a reduction in phosphotyrosine levels | –
4 | CCCCCCCCCCCCCCCCCCOCC(COP(=O)([O-])OCC[N+](C)(C)C)OCCCCC(=O)O (stereo not drawn) [CI-215, 1-octadecyl-2-(4-carboxy)butyl-glycero-3-phosphocholine] | induced an increase in phosphotyrosine levels | caused a decrease in phosphotyrosine levels | –
5 | NCCOP(=O)(O)OCC(COCCCCCCCCCCCCCCCC(=O)O)OCCCCC(=O)O (stereo not drawn) [CI-214, 1-(15′-carboxy)pentadecyl-2-(4-carboxy)butyl-glycero-3-phosphoethanolamine] | – | – | toxicity within the range of tested doses [2]: did not clearly exhibit significant toxicity within the range of tested doses; dose at which a significant decrease in cell number was detected in only one experiment ([2]; mouse, 24 h): 175.5 µM; dose at which toxicity was detected in only one experiment ([2]; mouse, 24 h): 100 µg/mL
6 | CCCCCCCCCCCCCCCCSCC(COP(=O)(O)OCCN)OCCCCC(=O)O (stereo not drawn) [1-S-CI-202, 1-S-hexadecyl-2-(4-carboxy)butyl-glycero-3-phosphoethanolamine] | caused an increase in phosphotyrosine levels | caused a reduction in phosphotyrosine levels | –
7 | CCCCCCCCCCCCCCCCOCC(COP(=O)(O)O)OCCCCC(=O)O (stereo not drawn) [CI-201-PA, 1-hexadecyl-2-(4-carboxy)butyl-glycero-3-phosphate] | – | – | dose at which (significant) toxicity was detected ([2]; mouse, 24 h): ≥ 20 µg/mL; dose at which toxicity was detected in only one experiment ([2]; mouse, 24 h): 10 µg/mL; LD50 ([2]; peritoneal macrophages, 24 hours, crystal violet cell number): approximately 50 μg/ml
8 | C[N+](C)(C)CCOP(=O)([O-])OCC(COCCCCCCCCCCCCCCCC(=O)O)OCCCCC(=O)O (stereo not drawn) [CI-213, 1-(15′-carboxy)pentadecyl-2-(4-carboxy)butyl-glycero-3-phosphocholine] | – | – | dose at which a significant decrease in cell number was detected in only one experiment ([2]; peritoneal macrophages, 24 hours, only one experiment): 163.5 µM; dose at which toxicity was detected in only one experiment ([2]; peritoneal macrophages, 24 hours, only one of two experiments): 100 µg/mL; toxicity within the range of tested doses ([2]; peritoneal macrophages, 24 hours, up to 150 μg/ml): did not clearly exhibit significant toxicity within the range of tested doses
9 | CCCCCCCCCCCCCCCCSCC(COP(=O)([O-])OCC[N+](C)(C)C)OCCCCC(=O)O (stereo not drawn) [1-S-CI-201, 1-S-hexadecyl-2-(4-carboxy)butyl-glycero-3-phosphocholine] | little effect, if any | caused a reduction in phosphotyrosine levels | –
10 | 1-(2-octyl)dodecyl-2-(4-carboxy)butyl-glycero-3-phosphoethanolamine [VB-222] | induction of tyrosine phosphorylation | induction of tyrosine phosphorylation | –
11 | CCCCCCCCCCCCCCCCOCC(COP(=O)(O)OCC(N)C(=O)O)OCCCCC(=O)O (stereo not drawn) [VB-223, 1-hexadecyl-2-(4-carboxy)butyl-glycero-3-phosphoserine] | induction of tyrosine phosphorylation | induction of tyrosine phosphorylation | phosphotyrosine levels ([1]; 1 μg/ml, 10 minutes): perhaps also; phosphotyrosine levels ([1]; 5 μg/ml, 10 minutes): induction of tyrosine phosphorylation
12 | CCCCCCCCCCCCCCCCCCCCOCC(COP(=O)([O-])OCC[N+](C)(C)C)OCCCCC(=O)O (stereo not drawn) [CI-219, 1-eicosanyl-2-(4-carboxy)butyl-glycero-3-phosphocholine] | little effect, if any | caused a reduction in phosphotyrosine levels | –

Reference: patent US9206206B2, “Oxidized lipid compounds and uses thereof” (Vascular Biogenics Ltd., priority 2008, dated 2015)
